Test [1] has as its system Triton WR-1339-Induced Hyperlipemia Mice. Description: Effect on serum lipid in Triton WR-1339-induced hyperlipemia mice. The format is in vivo, mouse (Crj:ICR-strain). As to conditions: Mus musculus, po (3 x 33.3 mg/kg), average of 10 animals, 24 hours. Here is the method:
For this test, Crj:ICR-strain male mice aged 7-9 weeks were provided. […] After 24 hours, blood sampling was performed for each mouse from the abdominal aorta under anesthesia with ether, and the collected blood were placed into plastic test tubes being placed with a blood separating agent beforehand, then after 30 min. or 1 hour, the blood sampled was centrifuged at 10,000 rpm to obtain the serum. Total cholesterol value, HDL cholesterol value and total triglyceride value in the serum were respectively measured by using the measuring kits and automatic biochemical analyser.

Test [2] relates to biosynthesis of cholesterol. Description: Inhibitory effect on biosynthesis of cholesterol in cell-free biosystem. As to conditions: cell-free rat liver enzyme system, 90 min, 37° C., pH 7.4; read-out: 50% Inhibitory Concentration (IC50), cholesterol biosynthesis. In kind it is biochemical, rat (SD-strain). Here is the method: Inhibitory Effect on Biosynthesis of Cholesterol in Cell-free Biosystem
(1) Preparation of Enzyme Reaction System
(§1) The preparation of the enzymatic system for the biosynthesis of cholesterol in rats was carried out according to the method described in Biochimica et Biophysica Acta, Vol.486, pp 70-81, 1977.
(§2) More particularly, SD-strain female rats weighing from […] were fed for 7 to 10 days with a diet containing 2% cholestyramine to enhance their biosynthetic activity of cholesterol. After killed the rats by means of depletion of blood in midnight, the livers thereof were removed and homogenized with a double volume of 0.1 M potassium phosphate buffer solution (pH 7.4) containing 15 mM nicotine amide and 2 mM magnesium chloride by using a loose fitting-type teflon homogenizer. The supernatant obtained by centrifuging the homogenate at 12,000×g for 30 min. was further centrifuged at 105,000×g for 90 min., thereby separating it to the microsome fraction and the supernatant fraction. The supernatant obtained were kept as the fraction resulting in the precipitation in 40-80% ammonium sulfate (hereinafter referred to as "soluble fraction"). Each of the soluble fraction and the microsome fraction were independently adjusted with 0.1 M potassium phosphate buffer solution (pH 7.4) to the volumes of 1 ml/g of liver and 1 ml/3 g of liver, respectively, and were kept and used in the subsequent tests as an enzyme solution for the mixing ratio of 16:1.
(2) Method for Measuring Cholesterol Biosynthesis Activity
(§3) Cholesterol biosynthesis activity was measured according to the method described in Biochimica Biophysica Acta, Vol.486, pp 70-81, 1977. 2 μl dimethylsulfoxide solution of the test compound were added to a solution composed of 50 μl of the enzyme solution prepared in (1) described above, 0.1 M potassium phosphate buffer solution (pH 7.4), 1 mM ATP, 5 mM glucose-1-phosphate, 6 mM glutathione, 6 mM magnesium chloride, 0.04 mM coenzyme A, 0.25 mM NAD, 0.25 mM NADP and 1 mM 2-^14 C-sodium acetate (111 MBq./mmol), and the resultant solution was adjusted to the whole volume of 0.2 ml and then allowed to a reaction for 90 min. at 37° C. while shaking. The reaction was then stopped by adding 1 ml of 15% ethanol solution of potassium hydroxide, and the solution was then heated for 1 hour at 75° C. After extracted unsaponificated products with hexane from the solution, the solution was then condensed and dried to the hard state and subsequently dissolved in small volume of a mixture of chloroform and methanol (mixing ratio; 1:2). The resultant chloroform-methanol solution was spotted on a pre-coated silica gel TLC plate, then developed with a developer composed of benzene and ethyl acetate (mixing ratio; 9:1). The cholesterol spot was then taken out from the plate, and the radient activity of the spot was measured by using a liquid scintillation counter. Based on the radio-activity measured, mthe 50% inhibitory concentration (IC50) of the compounds of the present invention were determined.

The target of test [3] is T1, squalene-2,3-oxide cyclase (Rattus norvegicus, UniProt P48450).
T1 sequence (P48450 2-733): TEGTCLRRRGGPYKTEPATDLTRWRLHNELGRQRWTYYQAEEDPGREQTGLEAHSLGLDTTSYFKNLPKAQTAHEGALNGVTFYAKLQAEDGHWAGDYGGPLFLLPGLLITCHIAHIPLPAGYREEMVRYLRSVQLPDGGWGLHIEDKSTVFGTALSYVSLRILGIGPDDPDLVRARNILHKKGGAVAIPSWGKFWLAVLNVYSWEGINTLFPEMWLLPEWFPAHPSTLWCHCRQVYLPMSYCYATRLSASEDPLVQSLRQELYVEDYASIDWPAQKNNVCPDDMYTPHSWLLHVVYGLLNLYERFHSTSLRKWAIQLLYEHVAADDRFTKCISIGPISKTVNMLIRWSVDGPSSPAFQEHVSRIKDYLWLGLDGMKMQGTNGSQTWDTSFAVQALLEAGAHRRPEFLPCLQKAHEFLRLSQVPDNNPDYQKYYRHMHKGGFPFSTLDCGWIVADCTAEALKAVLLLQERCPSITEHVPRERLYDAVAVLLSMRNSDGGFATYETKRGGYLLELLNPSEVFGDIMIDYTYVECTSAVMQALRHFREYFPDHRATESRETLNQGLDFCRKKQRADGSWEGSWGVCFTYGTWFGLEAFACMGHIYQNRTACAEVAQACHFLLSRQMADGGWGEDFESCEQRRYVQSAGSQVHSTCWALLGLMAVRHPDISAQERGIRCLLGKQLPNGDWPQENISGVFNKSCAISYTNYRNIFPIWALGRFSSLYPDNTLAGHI
Description: Sterol amount synthesized in cell-free cholesterol biosynthesis system (squalene-2,3-epoxide accumulation). The format is biochemical, rat (SD-strain). The conditions noted are these: average of 6 results; for Sterol Amount Synthesized: Squalene-2,3-epoxide: control 2125 (Test 1, 1-17), 953 (Test 2, 2-47); for Sterol Amount Synthesized: Cholesterol: control 15448 (Test 1, 1-17), 9453 (Test 2, 2-47); for Sterol Amount Synthesized: Total Amount Synthesized: control 85102 (Test 1, 1-17), 53622 (Test 2, 2-47). Here is the method:
as §1, §2, §3
On the other hand, after determining the position of ^14 C-squalene-2,3-epoxide on the TLC, which was produced due to the action of AMO 1618 (Calbiochem, USA), a squalene-2,3-oxidecyclase inhibitor, the spot containing squalene-2,3-epoxide […] was taken out and the radio-activity thereof was then determined by using a liquid scintillation counter.

[4] abbreviates: read-out: % Change of Serum Lipid to Control Group: HDL Cholesterole.
Setting [5] is: read-out: % Change of Serum Lipid to Control Group: Total Cholesterole.
Where [6] appears, read: read-out: % Change of Serum Lipid to Control Group: Total glyceride.

Read-outs that look alike come from different tables or passages of the source. Some results are limits rather than exact numbers.

With `c1ccc(CCCCOc2ccc(Cn3ccnc3)cc2)cc1` [Compound 2-49, 1-[4-(4-phenylbutyloxy)benzyl]imidazole], the change in vivo at 100 mg/kg in test [1] (setting [4]) was 20%; in test [1] (setting [5]), -16%; in test [1] (setting [6]), -10%. Further, the IC50 in test [2] is 1.2 µM.

Regarding `CCCCCCCCCCNc1ccc(-n2ccnc2)cc1` [Compound 1-115], the change in vivo at 100 mg/kg is 22% in test [1] (setting [4]), -17% in test [1] (setting [5]) and -25% in test [1] (setting [6]). Moreover, the IC50 in test [2] was 10 µM.

On to `c1ccc(CCCCNc2ccc(-n3ccnc3)cc2)cc1` [Compound 1-20], for which the IC50 in test [2] came to 0.7 µM.

In the case of `c1ccc(OCCOc2ccc(Cn3ccnc3)cc2)cc1` [Compound 2-59, 1-[4-(2-phenoxyethyloxy)benzyl]imidazole], the IC50 in test [2] came to 21 µM.

As for `O=S(=O)(CCCOc1ccc(Cn2ccnc2)cc1)c1ccccc1` [Compound 2-68, 1-[4-(3-benzenesulfonylpropyloxy)benzyl]imidazole], the IC50 in test [2] is less than 1 µM.

Regarding `CCCCCCCCCCOc1ccc(-n2ccnc2)cc1` [Compound 1-119], the IC50 in test [2] is 9 µM.

For the compound `c1ccc(OCCCNc2ccc(-n3ccnc3)cc2)cc1` [Compound 1-33], in test [2], the IC50 was determined as 6.2 µM.

With `c1ccc(CCCOc2ccc(-n3ccnc3)cc2)cc1` [Compound 1-47], the figures for the change in vivo at 100 mg/kg in test [1] (setting [4]), in test [1] (setting [5]) and in test [1] (setting [6]) were 46%, -16% and -23%, respectively. Further, the IC50 in test [2] came out at 7 µM.

On to `Cc1ccc(OCCCOc2ccc(Cn3ccnc3)cc2)cc1` [Compound 2-95, 1-{4-[3-(4-tolyloxy)propyloxy]benzyl} imidazole], for which the IC50 in test [2] came out at 2.4 µM.

For the compound `c1ccc(OCCCCNc2ccc(-n3ccnc3)cc2)cc1` [Compound 1-35], in test [2], the IC50 came out at 2.2 µM.

As for `c1ccc(CCCCOc2ccc(-n3ccnc3)cc2)cc1` [Compound 1-49, 1-[4-(4-phenylbutoxy)phenyl]imidazole], the IC50 in test [2] came to 0.68 µM.

In the case of `c1ccc(OCCCOc2ccc(Cn3ccnc3)cc2)cc1` [Compound 2-60], the IC50 in test [2] came to 10 µM.

For `c1ccc(OCCCOc2ccc(-n3ccnc3)cc2)cc1` [Compound 1-60], the change in vivo at 100 mg/kg is 52% in test [1] (setting [4]), -22% in test [1] (setting [5]) and -37% in test [1] (setting [6]). For the same compound, the IC50 in test [2] stood at 4.8 µM.

Take `c1ccc(CCCOc2ccc(Cn3ccnc3)cc2)cc1` [Compound 2-47, 1-[4-(3-phenylpropyloxy)benzyl]imidazole]: in test [2], the IC50 came out at 1.4 µM. Besides, the “Sterol Amount Synthesized: Squalene-2,3-epoxide” value was 221 dpm/90min/Assay in test [3] (1 μM), 1280 dpm/90min/Assay in test [3] (3 μM), 1836 dpm/90min/Assay in test [3] (10 μM) and 7126 dpm/90min/Assay in test [3] (30 μM). Also, the “Sterol Amount Synthesized: Cholesterol” value in test [3] (1 μM) is 5289 dpm/90min/Assay; in test [3] (3 μM), 6333 dpm/90min/Assay; in test [3] (10 μM), 4210 dpm/90min/Assay; in test [3] (30 μM), 3787 dpm/90min/Assay. Besides, the “Sterol Amount Synthesized: Total Amount Synthesized” value in test [3] (1 μM) is 53803 dpm/90min/Assay; in test [3] (3 μM), 56335 dpm/90min/Assay; in test [3] (10 μM) it was 72823 dpm/90min/Assay; in test [3] (30 μM), 63661 dpm/90min/Assay.

In the case of `CC[C@H](C)C(=O)O[C@H]1C[C@H](O)C=C2C=C[C@H](C)[C@H](CC[C@@H](O)C[C@@H](O)CC(=O)O)[C@H]21` [Pravastatin, reference compound], the change in vivo at 100 mg/kg in test [1] (setting [4]) was -8%; in test [1] (setting [5]) it was -16%; in test [1] (setting [6]), -28%.

With `c1ccc(CCCCCCOc2ccc(-n3ccnc3)cc2)cc1` [Compound 1-53], the IC50 in test [2] was 1.7 µM.

Regarding `c1ccc(OCCCCOc2ccc(-n3ccnc3)cc2)cc1` [Compound 1-61], the IC50 in test [2] was 4 µM.

With `CC(CCOc1ccc(-n2ccnc2)cc1)c1ccccc1` (centres unmarked) [Compound 1-48], in test [2], the IC50 is 1.4 µM.

`CN(CCCc1ccccc1)c1ccc(-n2ccnc2)cc1` [Compound 1-27]: the change in vivo at 100 mg/kg is 65% in test [1] (setting [4]), -14% in test [1] (setting [5]) and -22% in test [1] (setting [6]). In test [2], the IC50 was 1.8 µM.

Turning to `Cc1cc(OC(=O)N2CCCCC2)c(C(C)C)cc1[N+](C)(C)C` [AMO 1618, reference compound], the IC50 in test [2] amounted to 140 µM.

As for `c1ccc(CCCCCCNc2ccc(-n3ccnc3)cc2)cc1` [Compound 1-24], in test [2], the IC50 was 2.6 µM.
